We go through 1 molecule from patent US9120820B2, “Fluorescent molecular probes for use in assays that measure test compound competitive binding with SAM-utilizing proteins” (CAYMAN CHEMICAL COMPANY, INCORPORATED, priority 2011, dated 2015).

Several values for one entry are separate records, joined by “and”; a condition that tells them apart may be missing. Equal values may be shown once. Read-outs that look alike come from different tables or passages of the source.

The target in test [1] is T1, SET7/9 (Homo sapiens, UniProt Q8WTS6).
T1 construct: purchased Cayman 10320
T1 sequence (Q8WTS6 1-366): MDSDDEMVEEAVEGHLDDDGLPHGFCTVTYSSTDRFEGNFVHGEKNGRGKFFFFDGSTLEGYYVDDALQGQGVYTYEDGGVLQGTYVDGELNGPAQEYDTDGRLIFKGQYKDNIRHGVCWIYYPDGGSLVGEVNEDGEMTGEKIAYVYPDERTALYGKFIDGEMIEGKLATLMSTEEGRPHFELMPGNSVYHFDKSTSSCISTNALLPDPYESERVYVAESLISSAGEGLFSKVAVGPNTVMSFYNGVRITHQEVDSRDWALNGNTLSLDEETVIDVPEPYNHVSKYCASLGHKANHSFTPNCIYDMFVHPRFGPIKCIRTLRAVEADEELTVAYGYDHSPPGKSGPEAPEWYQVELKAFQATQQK
Kind of test: SET7/9 SAM-Screener high-throughput FP assay, Sinefungin Probe 1A displacement. In kind it is binding. As to conditions: SET7/9 30 nM, FIG. 10.
Procedure: Methods: A collection of 14,400 compounds from the Maybridge HitFinder collection of compounds was assayed for the displacement of Sinefungin Probe 1A from SET7/9 in a high-throughput manner using the SET7/9 SAM-Screener FP assay Cayman Catalog Item #600490). Thirty microliters of assay buffer (50 mM Tris pH 8.0, 50 mM KCl, 5 mM CHAPS, 2 mM DTT) was added to every well of a black 384-well polystyrene microtiter plate (Thermo-Fisher 364576). To every well, excluding control wells, was added one microliter of a DMSO solution containing a test compound. Control wells received either 1 μl DMSO or 1 μl of a sinefungin solution. The final concentration of sinefungin control or test compounds in the assay was 50 μM or 10 μM, respectively. To every well of the plate was added 10 μl of a SET7/9 solution to give a final assay concentration of 30 nM. After a 15-minute incubation at ambient temperature, 10 μl of Sinefungin Probe 1A solution was added to every well to give a final assay concentration of 10 nM in a total assay volume of 50 μl Samples were analyzed using a Biotek Synergy H4 plate reader in fluorescence polarization mode after a 30-minute incubation at ambient temperature in the dark. Data were analyzed using GeneData (v. 9.01). […]

Another test addresses Sumo. Kind of test: Fluorescence polarization saturation binding of fluorescent probe to Sumo (control protein). As to conditions: saturation-binding format, read-out: Sinefungin Probe 1A Affinity. Here is the method:
(§1) Sinefungin Probe 1A was tested for the ability to bind to 16 proteins, including several non-methlytransferase protein controls (Table 2). This probe binds to 4 methyltransferases (SET7/9, G9a, GLP, MLL) with Kd values <2 μM.

Test [2] addresses T1, SET7/9. Kind of test: Fluorescence polarization saturation binding of fluorescent probe to SET7/9. As for the experimental part: (§2) Methods: The experiment was performed once, with two replicate wells for all methyltransferases per condition. The sole exception to this is NSD2 (see details below). The assay was performed in a ½ area, black, 96-well plate (Corning #3686) in a final volume of 30 μL. Methyltransferases (Table 1) were serially diluted two-fold in FP buffer (Cayman Catalog #600028) and 15 μL of a given dilution were added per well to the assay plate. Fifteen microliters of sinefungin probe 1A (10 nM) were added to each well, giving a final sinefungin probe 1A concentration of 5 nM. This concentration of sinefungin probe 1A was chosen because it had at least a 10-fold increase in fluorescence (excitation max 575 nm/emission max 615 nm) over background (buffer). The mixture was incubated in the dark at room temperature for 30 minutes and its fluorescence polarization was read using a BioTek Synergy 4.
On the technique in general: Polarisation of emitted light reports the rotation of a fluorescent probe.

For the next test, the target named is MLL (Homo sapiens, UniProt Q03164). Kind of test: Fluorescence polarization saturation binding of fluorescent probe to MLL. Particulars: saturation-binding format, mean ± SEM, read-out: Sinefungin Probe 1A Affinity. Here is the method:
as §1

Another test has as its target T2, PRMT4 (Homo sapiens, UniProt Q86X55).
T2 construct: made in house
T2 sequence (Q86X55 1-608): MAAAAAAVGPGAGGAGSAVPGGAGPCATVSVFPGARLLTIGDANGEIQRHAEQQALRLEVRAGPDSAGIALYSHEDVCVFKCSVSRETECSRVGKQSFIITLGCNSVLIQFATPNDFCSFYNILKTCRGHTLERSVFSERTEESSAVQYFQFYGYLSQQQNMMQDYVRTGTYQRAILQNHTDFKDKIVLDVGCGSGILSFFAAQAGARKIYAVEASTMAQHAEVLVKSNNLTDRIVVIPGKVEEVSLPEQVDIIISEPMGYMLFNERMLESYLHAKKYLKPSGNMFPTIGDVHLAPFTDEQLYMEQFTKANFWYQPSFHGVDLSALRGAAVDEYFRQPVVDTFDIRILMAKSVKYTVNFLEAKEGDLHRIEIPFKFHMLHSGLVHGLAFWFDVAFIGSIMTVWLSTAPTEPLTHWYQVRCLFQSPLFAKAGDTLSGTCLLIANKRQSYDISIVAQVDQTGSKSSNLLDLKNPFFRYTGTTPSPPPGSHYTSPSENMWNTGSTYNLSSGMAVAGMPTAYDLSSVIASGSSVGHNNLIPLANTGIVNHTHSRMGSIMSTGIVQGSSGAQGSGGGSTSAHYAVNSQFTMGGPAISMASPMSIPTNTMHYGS
Kind of test: Fluorescence polarization saturation binding of fluorescent probe to PRMT4. Particulars: saturation-binding format, read-out: Sinefungin Probe 1A Affinity. As for the experimental part: as §1

Another test deals with KMT5c (Homo sapiens, UniProt Q86Y97). Kind of test: Fluorescence polarization saturation binding of fluorescent probe to KMT5c. Particulars: saturation-binding format, read-out: Sinefungin Probe 1A Affinity. Here is the method: as §1
A further test has as its target T3, PRMT1 (Homo sapiens, UniProt Q99873).
T3 construct: purchased Cayman
Kind of test: Fluorescence polarization saturation binding of fluorescent probe to PRMT1. Here is the method: as §2

In the next test the target is KMT5b (Homo sapiens, UniProt Q4FZB7). Kind of test: Fluorescence polarization saturation binding of fluorescent probe to KMT5b. Particulars: saturation-binding format, mean ± SEM, read-out: Sinefungin Probe 1A Affinity. Here is the method:
as §1

Another test has as its target Trypsin. Kind of test: Fluorescence polarization saturation binding of fluorescent probe to Trypsin (control protein). As to conditions: saturation-binding format, read-out: Sinefungin Probe 1A Affinity. As for the experimental part:
as §1

T3 sequence (Q99873 whole entry): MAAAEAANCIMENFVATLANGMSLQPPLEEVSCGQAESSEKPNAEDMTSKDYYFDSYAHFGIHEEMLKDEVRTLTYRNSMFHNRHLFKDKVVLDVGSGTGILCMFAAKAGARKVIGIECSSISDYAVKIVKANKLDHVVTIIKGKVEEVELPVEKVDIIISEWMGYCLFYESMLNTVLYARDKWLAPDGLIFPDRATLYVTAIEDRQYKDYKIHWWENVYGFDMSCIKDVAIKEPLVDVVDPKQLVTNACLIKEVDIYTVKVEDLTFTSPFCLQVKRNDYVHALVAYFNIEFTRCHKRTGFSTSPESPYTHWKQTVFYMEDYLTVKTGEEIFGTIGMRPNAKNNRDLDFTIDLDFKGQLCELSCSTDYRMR
Sequence of KMT5c (Q86Y97 whole entry, species assumed): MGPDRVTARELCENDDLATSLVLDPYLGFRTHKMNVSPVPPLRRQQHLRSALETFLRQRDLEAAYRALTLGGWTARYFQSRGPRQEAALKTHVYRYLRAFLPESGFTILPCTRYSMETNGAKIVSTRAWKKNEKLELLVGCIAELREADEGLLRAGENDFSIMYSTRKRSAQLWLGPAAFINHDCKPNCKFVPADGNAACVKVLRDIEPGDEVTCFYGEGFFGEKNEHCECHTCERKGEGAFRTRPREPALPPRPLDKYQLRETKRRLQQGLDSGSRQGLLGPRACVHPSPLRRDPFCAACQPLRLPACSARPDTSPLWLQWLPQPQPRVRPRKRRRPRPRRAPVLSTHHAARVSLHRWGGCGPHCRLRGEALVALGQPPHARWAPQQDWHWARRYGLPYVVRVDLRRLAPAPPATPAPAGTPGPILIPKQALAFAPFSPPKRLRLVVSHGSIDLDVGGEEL
Sequence of MLL (Q03164 3785-3969 limits assumed): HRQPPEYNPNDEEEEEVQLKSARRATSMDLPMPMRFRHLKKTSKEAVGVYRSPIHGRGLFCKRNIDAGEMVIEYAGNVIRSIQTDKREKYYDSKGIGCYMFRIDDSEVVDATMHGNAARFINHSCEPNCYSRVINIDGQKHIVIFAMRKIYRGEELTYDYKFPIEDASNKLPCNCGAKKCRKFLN
Sequence of KMT5b (Q4FZB7 whole entry, species assumed): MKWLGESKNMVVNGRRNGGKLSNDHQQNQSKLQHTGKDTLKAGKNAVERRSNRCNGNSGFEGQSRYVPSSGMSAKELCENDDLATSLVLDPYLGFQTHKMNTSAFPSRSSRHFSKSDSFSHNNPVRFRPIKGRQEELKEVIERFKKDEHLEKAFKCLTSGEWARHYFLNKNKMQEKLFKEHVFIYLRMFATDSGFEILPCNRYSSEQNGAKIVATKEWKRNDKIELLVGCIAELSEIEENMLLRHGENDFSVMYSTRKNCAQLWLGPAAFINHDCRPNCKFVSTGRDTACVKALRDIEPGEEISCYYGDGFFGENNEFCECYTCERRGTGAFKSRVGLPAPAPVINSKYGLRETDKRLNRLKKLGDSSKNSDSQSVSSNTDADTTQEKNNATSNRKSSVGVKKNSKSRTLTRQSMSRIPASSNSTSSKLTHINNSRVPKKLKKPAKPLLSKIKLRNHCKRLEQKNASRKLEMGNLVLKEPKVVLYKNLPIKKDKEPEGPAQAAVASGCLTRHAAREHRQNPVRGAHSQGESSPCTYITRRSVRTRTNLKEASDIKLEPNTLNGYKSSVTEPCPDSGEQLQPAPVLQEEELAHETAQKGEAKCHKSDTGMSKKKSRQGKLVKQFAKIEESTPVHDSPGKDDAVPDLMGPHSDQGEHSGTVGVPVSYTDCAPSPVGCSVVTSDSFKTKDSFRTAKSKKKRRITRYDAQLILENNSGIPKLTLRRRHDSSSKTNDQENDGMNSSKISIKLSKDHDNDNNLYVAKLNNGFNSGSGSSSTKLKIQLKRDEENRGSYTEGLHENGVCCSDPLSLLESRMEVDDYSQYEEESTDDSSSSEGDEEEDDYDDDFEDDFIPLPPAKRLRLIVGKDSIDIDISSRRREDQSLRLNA

`Nc1ncnc2c1ncn2[C@@H]1O[C@H](C[C@@H](N)CC[C@H](N)C(=O)O)[C@@H](OCc2cnnn2CCCCCCNC(=O)OC2CCN(C(=O)c3ccccc3C3=c4cc5c6c(c4Oc4c3cc3c7c4CCCN7CCC3)CCC[N+]=6CCC5)CC2)[C@H]1O` [Sinefungin Probe 1A]: the “increase of probe polarization by binding” value at SET7/9 [1] is given as more than 120 mp. Besides, the Kd on Sumo was more than 10000 nM; on SET7/9 [2] (Example 8, SET7/9, 5 nM probe, experiment performed once, FIG. 2, read-out: Kd), 17 nM; at SET7/9 [2] (SET7/9, saturation-binding format, mean ± SEM, at least two independent experiments, read-out: Sinefungin Probe 1A Affinity), < 2000 nM and 27 nM; at MLL it was 750 ± 65 nM; on PRMT4, more than 2000 nM; at KMT5c it was more than 2000 nM. Moreover, the Kd on PRMT1 (PRMT1, saturation-binding format, read-out: Sinefungin Probe 1A Affinity) was more than 1200 nM; at KMT5b, 6100 ± 800 nM; at Trypsin it was more than 10000 nM. Besides, at PRMT1 (Example 8, PRMT1, 5 nM probe, FIG. 2), the “measurable affinity for the probe” value was “only SET7/9 and G9a displayed measurable affinity”.
